Article PMC3897731, “Antimicrobial Properties and Membrane-Active Mechanism of a Potential α-Helical Antimicrobial Derived from Cathelicidin PMAP-36” (PLoS ONE, 2014)
Converted amounts (≈) assume the structure as drawn. Read-outs that look alike come from different tables or passages of the source. Ends that are not written are not given here.

Columns and labels:
human erythrocytes = assay: Hemolytic activity; assay type: cell-based; conditions: for Hemolytic activity (in words): 1 h at 37°C in PBS, absorbance at 570 nm, up to 128 µM, three independent experiments; for Concentration causing 50% hemolysis: highest concentration 128 µM
Procedure: The hemolytic activity of the peptides was measured as the amount of hemoglobin released by the lysis of human erythrocytes. Briefly, 1 ml of fresh human blood cells (hRBCs) obtained from a healthy donor (Na Dong, Harbin, China) in a polycarbonate tube containing heparin was centrifuged at 1,000×g for 5 min at 4°C [16]. The experimental protocol was reviewed and approved by the ethics committee of the Northeast Agricultural University Hospital. The erythrocytes obtained were washed three times with phosphate-buffered saline (PBS) solution (pH 7.2) and resuspended in PBS. A 50 µl volume of the erythrocyte solution was incubated with 50 µl of various peptides dissolved in PBS for 1 h at 37°C. Intact erythrocytes were pelleted by centrifugation at 1,000×g for 5 min at 4°C, and the supernatant was transferred to a new 96-well plate. The release of hemoglobin was monitored by measuring the absorbance at 570 nm. As negative and positive controls, hRBCs in PBS without the peptide and 0.1% Triton X-100 were employed, respectively.

E. coli UB1005 = assay: Inner (cytoplasmic) membrane depolarization, diSC3(5); assay type: cell-based, Escherichia coli; conditions: 0.4 µM diSC3(5), monitored over 360 s
Procedure: The cytoplasmic membrane depolarization activity of the peptides was measured by using E. coli UB1005 and the membrane potential sensitive fluorescent dye diSC3(5) as described previously. Briefly, mid-logarithmic phase E. coli were washed with 5 mM sodium HEPES buffer, pH 7.4, containing 20 mM glucose, and resuspended to an OD600 of 0.05 in the same buffer. The cell suspension was incubated with 0.4 µM diSC3(5) until a stable reduction of fluorescence was achieved (approximately 1 h). Then KCl was added to a final concentration of 0.1 M to equilibrate the cytoplasmic and external K^+. Two milliliters of the cell suspension were placed in a 1 cm cuvette, and the peptides were added to achieve the desired concentrations. Changes in fluorescence were recorded using an F-4500 fluorescence spectrophotometer (Hitachi, Japan) with an excitation wavelength of 622 nm and an emission wavelength of 670 nm. 0.1% Triton X-100 was employed as positive controls.

[1] = test system: gram-negative and gram-positive bacteria (six strains tested)
Procedure: (§1) The antimicrobial activity of each peptide was determined against the following bacteria strains: Escherichia coli ATCC 25922, Escherichia coli UB1005, Salmonella enterica serovar typhimurium C77-31, Staphylococcus aureus ATCC 29213, Staphylococcus aureus ATCC 25923 and Staphylococcus epidermidis ATCC 12228. The minimal inhibitory concentrations (MICs) of the peptides were measured according to a modified version of the National Committee for Clinical Laboratory Standards (NCCLS) broth microdilution method as described previously. Briefly, mid-logarithmic phase bacteria were cultured in Mueller-Hinton (MH) broth and then diluted to 1×10^5 CFU/ml. Equal volumes (50 µl) of microorganism solution and 2-fold serially diluted different concentrations (0.25–128 µM) peptides in 0.01% (v/v) acetic acid and 0.2% (w/v) bovine serum albumin (BSA, Sigma) were added to each well of the sterile 96-well plate. After incubation for 24 h at 37°C, MICs were determined as the lowest concentration of peptides that prevented visible turbidity by visual inspection. The tests were performed in triplicate. Cultures without peptides and uninoculated MH broth were employed as positive and negative controls, respectively. In addition, the salt stability of the peptides was tested in the MIC assay mentioned above.

Escherichia coli UB1005 = test system: Escherichia coli UB1005
Procedure: as §1

[2] = test system: Salmonella enterica serovar typhimurium C77-31
Procedure: as §1

[3] = test system: Staphylococcus epidermidis ATCC 12228
Procedure: as §1

E. coli ATCC 25922 = assay: FACScan analysis of membrane integrity (propidium iodide); assay type: cell-based, Escherichia coli
Procedure: The integrity of the bacterial cell membranes after peptide treatment was determined using a previously described method. In brief, mid-logarithmic phase E. coli ATCC 25922 were harvested by centrifugation and washed three times with 10 mM PBS solution. The peptides (1×MIC and 2×MIC) were added and incubated for 30 min at 28°C with constant shaking at 140 rpm, and then, propidium iodide (PI, 10 µg/ml final concentration, Sigma) was added and incubated for a further 30 min at 4°C. After incubation, the unbound dye was removed via excessive washing of cells with PBS. Flow cytometry analysis was conducted using a FACScan instrument (Becton–Dickinson, San Jose, CA). E. coli cells were incubated with PI without peptide treated as negative control.

[4] = test system: Staphylococcus aureus ATCC 25923; conditions: ATCC 25923, 24 h
Procedure: as §1

[5] = test system: Staphylococcus aureus ATCC 29213; conditions: ATCC 29213, 24 h
Procedure: as §1

[6] = test system: Escherichia coli ATCC 25922; conditions: ATCC 25922, 24 h
Procedure: as §1

[7] = strain not given; for MIC, Without treatment: no salt added
[8] = broth microdilution, MH broth, 1×10^5 CFU/ml, 24 h at 37°C, visible turbidity, triplicate
[9] = all tested strains, >128 µM counted as 256 µM
[10] = serovar typhimurium C77-31, 24 h

| Molecule | Hemolytic activity (in words) (human erythrocytes) | GM, geometric mean of the MICs [1, 9] | MIC S. aureus ATCC 25923 [4] | MIC E. coli UB 1005 (Escherichia coli UB1005; UB1005, 24 h) | MIC S. typhimurium C77-31 [2, 10] | MIC S. epidermidis ATCC 12228 ([3]; ATCC 12228, 24 h) | MIC S. aureus ATCC 29213 [5] | MIC E. coli ATCC25922 [6] | also measured |
| --- | --- | --- | --- | --- | --- | --- | --- | --- | --- |
| CC[C@H](C)[C@H](NC(=O)CN)C(=O)NCC(=O)N[C@@H](C)C(=O)N[C@H](C(=O)N[C@@H](CC(C)C)C(=O)N[C@@H](CCCCN)C(=O)N[C@H](C(=O)N[C@@H](CC(C)C)C(=O)N[C@H](C(=O)N[C@H](C(=O)NCC(=O)N[C@@H](CC(C)C)C(=O)N1CCC[C@H]1C(=O)N[C@@H](C)C(=O)N[C@@H](CC(C)C)C(=O)N[C@H](C(=O)N[C@@H](CO)C(=O)N[C@@H](Cc1c[nH]c2ccccc12)C(=O)N[C@H](C(=O)N[C@@H](CCCCN)C(=O)N[C@@H](CCCNC(=N)N)C(=O)N[C@@H](CCCCN)C(=O)N[C@@H](CCCNC(=N)N)C(=O)N[C@@H](CCC(N)=O)C(=O)N[C@@H](CCC(N)=O)C(N)=O)[C@@H](C)CC)[C@@H](C)CC)[C@@H](C)O)[C@@H](C)O)C(C)C)C(C)C [melittin, reference compound] |  |  |  |  |  |  |  |  | Concentration causing complete hemolysis (human erythrocytes; 1 h at 37°C): 4 µM; Cytoplasmic membrane depolarization (diSC3(5) fluorescence, in words) (E. coli UB1005): induced dose-dependent increases in diSC3(5) fluorescence; GM, geometric mean of the MICs ([1]; 24 h): 2.52 µM; MIC E. coli UB 1005 (Escherichia coli UB1005; [8]): 2 µM (≈ 5.69 µg/mL); MIC S. typhimurium C77-31 [2, 8]: 2 µM (≈ 5.69 µg/mL); MIC S. epidermidis ATCC 12228 [3, 8]: 0.5 µM (≈ 1.42 µg/mL); Cells stained with PI (E. coli ATCC 25922): 40.7% |
| GRFRRLRKKTRK-NH2 [GK12] | no hemolytic activity | 203.19 µM | >128 µM | 128 µM | >128 µM | >128 µM | >128 µM | 128 µM |  |
| GRFRRLRKKTRKRLKKIGKV |  |  |  |  |  |  |  |  | Antimicrobial activity (in words) ([1]; tested microorganisms, up to 128 µM): extremely low antimicrobial activity |
| GRFRRLRKKTRKRLKKIGKVLKAI-NH2 [GI24-W23A] |  | 71.84 µM | 128 µM | 16 µM | >128 µM | 128 µM | 128 µM | 16 µM |  |
| GRFRRLRKKTRKRLKKIGKVLKKI-NH2 [GI24-W23K] | no hemolytic activity | 45.25 µM | 64 µM | 16 µM | >128 µM | 32 µM | 32 µM | 32 µM |  |
| GRFRRLRKKTRKRLKKIGKVLKLI-NH2 [GI24-W23L] | slightly hemolytic activity | 2.52 µM | 4 µM | 2 µM | 2 µM | 4 µM | 4 µM | 1 µM |  |
| GRFRRLRKKTRKRLKKIGKVLKWI-NH2 [GI24] | slightly hemolytic activity | 1.78 µM | 4 µM | 2 µM | 1 µM | 2 µM | 2 µM | 1 µM | Concentration causing 50% hemolysis (human erythrocytes; 1 h at 37°C): > 128 µM; MIC, CaCl2 (1 mM) [7]: 1 µM; MIC, MgCl2 (1 mM) [7]: 2 µM; MIC, NaCl (50 mM) [7]: 1 µM; MIC, NaCl (100 mM) [7]: 2 µM; MIC, NaCl (150 mM) [7]: 2 µM; MIC, Without treatment [7]: 1 µM |
| GRFRRLRKKTRKRLKKIGKVLKWIPPIVGSIPLGCG-NH2 [PMAP-36, porcine myeloid antimicrobial peptide-36] | slightly hemolytic activity | 1.59 µM | 2 µM | 2 µM | 1 µM | 2 µM | 2 µM | 1 µM | MIC, CaCl2 (1 mM) [7]: 1 µM; MIC, MgCl2 (1 mM) [7]: 2 µM; MIC, NaCl (50 mM) [7]: 1 µM; MIC, NaCl (100 mM) [7]: 1 µM; MIC, NaCl (150 mM) [7]: 2 µM; MIC, Without treatment [7]: 1 µM |
| GVFRRLRKVTRKVLKKIGKVLKWI-NH2 [GI24-V3] | relatively high hemolytic activity | 3.56 µM | 4 µM | 4 µM | 4 µM | 2 µM | 4 µM | 4 µM | Concentration causing 50% hemolysis (human erythrocytes; 1 h at 37°C): 128 µM |
| GVFRVLRKVTRVVLKVIGKVLKWI-NH2 [GI24-V6] | relatively high hemolytic activity | 2.52 µM | 2 µM | 4 µM | 4 µM | 2 µM | 2 µM | 2 µM | Concentration causing 50% hemolysis (human erythrocytes; 1 h at 37°C): 8 µM |
| PPIVGSIPLGCG-NH2 [PG12] | no hemolytic activity | 256 µM | >128 µM | >128 µM | >128 µM | >128 µM | >128 µM | >128 µM |  |
| RLKKIGKVLKWI-NH2 [RI12] | no hemolytic activity | 28.51 µM | 128 µM | 16 µM | 8 µM | 64 µM | 64 µM | 8 µM |  |
